# Target: PolQ ATPase enzyme (1-894) (Homo sapiens (Human), UniProt O75417)
# Experiment: Polθ ATPase enzymatic assay (0.5 nM enzyme concentration), ADP-Glo
# Assay type: biochemical
# Conditions: average IC50; 0.5 nM PolQ ATPase enzyme (1-894)
# Experimental: PolQ ATPase enzyme (1-894) at 0.5 nM is incubated with a 10-point concentration response of inhibitors for 15 min at rt in the following buffer: 50 mM Tris Cl pH 7.5, 10% glycerol, 5 mM DTT, 10 mM MgCl2, 0.1 mg/ml BSA. Following pre-incubation with inhibitors, DNA (Fork C) at 20 nM and ATP at 100 μM are added to start the reaction. Enzymatic reaction proceeds at rt for 180 min ATP consumption is measured using the ADP-Glo assay from Promega. Luminescence is read on the Envision and IC50 are determined using the variable slope 4-parameters equation.
# Oligos are annealed by heating at 9500 for 5 min in the following buffer (10 mM Tris-HCl pH7.5, 50 mM NaCl, 1 mM EDTA) and cooled to rt. […]
# PolQ ATPase enzyme (1-894), sequence (O75417 1-894): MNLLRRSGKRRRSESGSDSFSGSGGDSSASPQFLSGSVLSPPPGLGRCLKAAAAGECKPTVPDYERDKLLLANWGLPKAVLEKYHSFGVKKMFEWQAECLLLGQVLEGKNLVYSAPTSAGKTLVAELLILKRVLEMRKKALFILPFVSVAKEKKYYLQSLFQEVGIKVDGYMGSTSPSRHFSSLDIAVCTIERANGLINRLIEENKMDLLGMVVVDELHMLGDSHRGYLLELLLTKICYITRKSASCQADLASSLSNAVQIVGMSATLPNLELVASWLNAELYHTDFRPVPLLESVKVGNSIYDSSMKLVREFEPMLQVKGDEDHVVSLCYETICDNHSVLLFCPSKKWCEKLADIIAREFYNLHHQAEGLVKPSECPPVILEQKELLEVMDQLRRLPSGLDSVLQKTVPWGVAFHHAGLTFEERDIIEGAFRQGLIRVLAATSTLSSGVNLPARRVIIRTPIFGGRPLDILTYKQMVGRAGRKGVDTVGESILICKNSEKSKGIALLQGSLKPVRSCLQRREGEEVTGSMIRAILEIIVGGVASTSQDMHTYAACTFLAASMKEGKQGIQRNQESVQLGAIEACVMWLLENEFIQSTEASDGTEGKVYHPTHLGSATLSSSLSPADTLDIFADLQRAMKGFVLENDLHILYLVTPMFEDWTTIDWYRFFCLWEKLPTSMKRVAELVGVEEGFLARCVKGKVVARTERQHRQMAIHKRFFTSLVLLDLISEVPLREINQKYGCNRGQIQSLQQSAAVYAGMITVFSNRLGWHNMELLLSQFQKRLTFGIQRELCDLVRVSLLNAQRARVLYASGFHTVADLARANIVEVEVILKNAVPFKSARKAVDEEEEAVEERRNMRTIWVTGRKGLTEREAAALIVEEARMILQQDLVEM
row,IC50 [nM],SMILES
1,2,COc1cnc(Cl)cc1-c1cn2ncnc2cc1C(=O)Nc1nnc(C#Cc2cc(C)[nH]n2)s1 [Compound 97]
2,0.54,Cc1cc(C#Cc2nnc(NC(=O)c3cc(=O)n(C)cc3-c3cc(Cl)ncc3OC(F)F)s2)n[nH]1 [Compound 98]
3,0.36,COc1cnc(Cl)cc1-c1cn(CC(=O)N(C)C)c(=O)cc1C(=O)Nc1nnc(C#CC2CC2)s1 [Compound 99]
4,< 0.25,COc1cnc(Cl)cc1-c1cnccc1C(=O)Nc1nnc(C#CC2CC23CC3)s1 (stereo not shown) [Compound 100]
5,< 0.25,COc1ccc(F)cc1-c1cnccc1C(=O)Nc1nnc(C#Cc2cc(C#N)[nH]n2)s1 [Compound 101]
6,1.2,COc1ccc(C(F)(F)F)cc1-c1cn(C)c(=O)cc1C(=O)Nc1nnc(C#Cc2cc(C)[nH]n2)s1 [Compound 102]
7,1.2,COc1cnc(Cl)cc1-c1cn(C)c(=O)cc1C(=O)Nc1nnc(C#Cc2cc(C)[nH]n2)s1 [Compound 103]
8,0.31,CNC(=O)Cn1cc(-c2cc(Cl)ncc2OC)c(C(=O)Nc2nnc(C#CC3CC3)s2)cc1=O [Compound 104]
9,0.47,COc1cnc(Cl)cc1-c1cn(CC(N)=O)c(=O)cc1C(=O)Nc1nnc(C#CC2CC2)s1 [Compound 105]
10,< 0.25,Cc1cc(C#Cc2nnc(NC(=O)c3ccncc3-c3cc(Cl)ncc3OC(F)F)s2)n[nH]1 [Compound 106]
11,0.76,COc1cnc(Cl)cc1-c1cn(C)c(=O)cc1C(=O)Nc1nnc(C#CC2CC23CC3)s1 (stereo not shown) [Compound 107]
12,< 0.25,"COc1cnc(C(F)F)cc1-c1cc(N2CCOCC2=O)ccc1C(=O)Nc1nnc(C#CC2CC2)s1 [Compound 108, N-(5-(cyclopropylethynyl)-1,3,4-thiadiazol-2-yl)-2-(2-(difluoromethyl)-5-methoxypyridin-4-yl)-4-(3-oxomorpholino)benzamide]"
13,< 0.25,"COc1cnc(C(F)F)cc1-c1cc(N2CCN(C)CC2=O)ccc1C(=O)Nc1nnc(C#CC2CC2)s1 [Compound 109, N-(5-(cyclopropylethynyl)-1,3,4-thiadiazol-2-yl)-2-(2-(difluoromethyl)-5-methoxypyridin-4-yl)-4-(4-methyl-2-oxopiperazin-1-yl)benzamide]"
14,< 0.25,"COc1cnc(C(F)F)cc1-c1cc(N2CCOCC2=O)ncc1C(=O)Nc1nnc(C#CC2CC2)s1 [Compound 110, N-(5-(cyclopropylethynyl)-1,3,4-thiadiazol-2-yl)-2′-(difluoromethyl)-5′-methoxy-6-(3-oxomorpholino)-[4,4′-bipyridine]-3-carboxamide]"
15,0.78,"COc1cnc(C(F)F)cc1-c1cc(-c2nnc(C)o2)ccc1C(=O)Nc1nnc(C#CC2CC2)s1 [Compound 111, N-(5-(cyclopropylethynyl)-1,3,4-thiadiazol-2-yl)-2-(2-(difluoromethyl)-5-methoxypyridin-4-yl)-4-(5-methyl-1,3,4-oxadiazol-2-yl)benzamide]"
16,< 0.25,"COc1cnc(C(F)F)cc1-c1cc(CC#N)ccc1C(=O)Nc1nnc(C#CC2CC2)s1 [Compound 112, 4-(cyanomethyl)-N-(5-(cyclopropylethynyl)-1,3,4-thiadiazol-2-yl)-2-(2-(difluoromethyl)-5-methoxypyridin-4-yl)benzamide]"
17,0.53,"COc1cnc(C(F)F)cc1-c1cc(-c2ccn(C)n2)ncc1C(=O)Nc1nnc(C#CC2CC2)s1 [Compound 113, N-(5-(cyclopropylethynyl)-1,3,4-thiadiazol-2-yl)-2′-(difluoromethyl)-5′-methoxy-6-(1-methyl-1H-pyrazol-3-yl)-[4,4′-bipyridine]-3-carboxamide]"
18,0.26,"Cc1nnc(Cn2cc(-c3cc(C(F)F)ccc3Cl)c(C(=O)Nc3ncc(C#CC4CC4)s3)cc2=O)o1 [Compound 114, 5-(2-chloro-5-(difluoromethyl)phenyl)-N-(5-(cyclopropylethynyl)thiazol-2-yl)-1-((5-methyl-1,3,4-oxadiazol-2-yl)methyl)-2-oxo-1,2-dihydropyridine-4-carboxamide]"
19,< 0.25,"Cc1nnc(Cn2cc(-c3cc(C(F)(F)F)ccc3Cl)c(C(=O)Nc3ncc(C#CC4CC4)s3)cc2=O)o1 [Compound 115, 5-(2-chloro-5-(trifluoromethyl)phenyl)-N-(5-(cyclopropylethynyl)thiazol-2-yl)-1-((5-methyl-1,3,4-oxadiazol-2-yl)methyl)-2-oxo-1,2-dihydropyridine-4-carboxamide]"
20,2,"COc1cnc(C(F)F)cc1-c1cc(-c2ccn(C)n2)ncc1C(=O)Nc1ncc(C#CC2CC2)s1 [Compound 117, N-(5-(cyclopropylethynyl)thiazol-2-yl)-2′-(difluoromethyl)-5′-methoxy-6-(1-methyl-1H-pyrazol-3-yl)-[4,4′-bipyridine]-3-carboxamide]"
21,2.5,COc1cnc(C(F)F)cc1-c1cc(-c2nnc(C)o2)ccc1C(=O)Nc1ncc(C#CC2CC2)s1 [Compound 120]
22,2,COc1cnc(C(F)F)cc1-c1cc(N2CCC(C)(O)CC2)ncc1C(=O)Nc1nnc(C#CC2CC2)s1 [Compound 121]
23,< 0.25,"COc1cnc(C(F)F)cc1-c1cc(-n2ccccc2=O)ncc1C(=O)Nc1nnc(C#CC2CC2)s1 [Compound 122, N-(5-(cyclopropylethynyl)-1,3,4-thiadiazol-2-yl)-2″-(difluoromethyl)-5″-methoxy-2-oxo-2H-[1,2′:4′,4″-terpyridine]-5′-carboxamide]"
24,< 0.25,COC(=O)N1CCN(c2ccc(C(=O)Nc3nnc(C#CC4CC4)s3)c(-c3cc(C(F)F)ncc3OC)c2)C(=O)C1 [Compound 123]
25,< 0.25,"COc1cnc(C(F)F)cc1-c1cc(-c2ccn(CS(C)(=O)=O)n2)ccc1C(=O)Nc1nnc(C#CC2CC2)s1 [Compound 124, N-(5-(cyclopropylethynyl)-1,3,4-thiadiazol-2-yl)-2-(2-(difluoromethyl)-5-methoxypyridin-4-yl)-4-(1-((methylsulfonyl)methyl)-1H-pyrazol-3-yl)benzamide]"
26,21,COc1cnc(C(F)F)cc1-c1cc(N2CCC(n3ccnc3)CC2)ncc1C(=O)Nc1nnc(C#CC2CC2)s1 [Compound 125]

# More lines, now with the values behind:
row,SMILES,IC50 [nM]
1,COc1cnc(Cl)cc1-c1cc(C(N)=O)ncc1C(=O)Nc1nnc(C#CC2CC2)s1 [Compound 73],0.42
2,Cn1cc(-c2cc(Cl)ncc2OC(F)F)c(C(=O)Nc2nnc(C#CC3CC3)s2)cc1=O [Compound 74],0.73
3,COc1ccc(C(F)(F)F)cc1-c1cn(CC(=O)N(C)C)c(=O)cc1C(=O)Nc1nnc(C#CC2CC2)s1 [Compound 75],< 0.25
4,NC(=O)Cn1cc(-c2cc(Cl)ncc2OC(F)F)c(C(=O)Nc2nnc(C#CC3CC3)s2)cc1=O [Compound 76],< 0.25
5,CNC(=O)Cn1cc(-c2cc(Cl)ncc2OC(F)F)c(C(=O)Nc2nnc(C#CC3CC3)s2)cc1=O [Compound 77],< 0.25
6,COc1ccc(C(F)(F)F)cc1-c1cn(C2COC2)c(=O)cc1C(=O)Nc1nnc(C#Cc2cc(C)[nH]n2)s1 [Compound 78],2.71
7,COc1cnc(C2CC2)cc1-c1cnccc1C(=O)Nc1nnc(C#CC2CC2)s1 [Compound 79],1.21
8,COc1ccc(C(F)(F)F)cc1-c1cn(C)c(=O)cc1C(=O)Nc1nnc(C#CC2CC2)s1 [Compound 80],2.1
9,COc1ccc(C(F)(F)F)cc1-c1cn(CC(=O)N(C)C)c(=O)cc1C(=O)Nc1nnc(C#Cc2cc(C)[nH]n2)s1 [Compound 81],< 0.25
10,CNC(=O)Cn1cc(-c2cc(C(F)(F)F)ccc2OC)c(C(=O)Nc2nnc(C#Cc3cc(C)[nH]n3)s2)cc1=O [Compound 82],< 0.25
11,COc1cnc(Cl)cc1-c1cn(CC(N)=O)c(=O)cc1C(=O)Nc1nnc(C#CC2CC23CC3)s1 (stereo not shown) [Compound 83],< 0.25
12,COc1cnc(C)cc1-c1cnccc1C(=O)Nc1nnc(C#Cc2cc(C)[nH]n2)s1 [Compound 85],1.1
13,COc1ccc(C(F)(F)F)cc1-c1cn2ncnc2cc1C(=O)Nc1nnc(C#Cc2cc(C)[nH]n2)s1 [Compound 86],1.6
14,COc1ccc(C(F)F)cc1-c1cn(CC(N)=O)c(=O)cc1C(=O)Nc1nnc(C#CC2CC2)s1 [Compound 87],0.36
15,COc1ncc(C(F)(F)F)cc1-c1cnccc1C(=O)Nc1nnc(C#Cc2cc(C)[nH]n2)s1 [Compound 88],2.4
16,CNC(=O)Cn1cc(-c2cc(C(F)(F)F)cnc2OC)c(C(=O)Nc2nnc(C#CC3CC3)s2)cc1=O [Compound 89],1.2
17,COc1cnc(C(F)(F)F)cc1-c1cnccc1C(=O)Nc1nnc(C2CC2c2ccc(C#N)cc2)s1 (stereo not shown) [Compound 90],0.8
18,COc1cnc(C(F)(F)F)cc1-c1cnccc1C(=O)Nc1nnc(C#CC2CC2)s1 [Compound 91],2.3
19,CNC(=O)Cn1cc(-c2cc(C(F)(F)F)ccc2OC)c(C(=O)Nc2nnc(C3CC3c3ccc(C#N)cc3)s2)cc1=O (stereo not shown) [Compound 92],0.25
20,CNC(=O)Cn1cc(-c2cc(C(F)(F)F)ccc2OC)c(C(=O)Nc2nnc(C#CC3CC3)s2)cc1=O [Compound 93],0.32
21,COc1ccc(C(F)(F)F)cc1-c1cn(CC(N)=O)c(=O)cc1C(=O)Nc1nnc(C#Cc2cc(C)[nH]n2)s1 [Compound 94],< 0.25
22,COc1ccc(C(F)(F)F)cc1-c1cn(CC(N)=O)c(=O)cc1C(=O)Nc1nnc(C#CC2CC2)s1 [Compound 95],< 0.25
23,COc1cnc(Cl)cc1-c1cn2ncnc2cc1C(=O)Nc1nnc(C#CC2CC2)s1 [Compound 96],2.6
24,COc1cnc(C(F)F)cc1-c1cc(N(C)c2nnc(C)o2)ccc1C(=O)Nc1ncc(C#CC2CC2)s1 [Compound 119],23
25,Cc1nnc(Cn2cc(-c3cc(C(F)F)ncc3C)c(C(=O)Nc3ncc(C#CC4CC4)s3)cc2=O)o1 [Compound 126],< 0.25
26,COc1cnc(C(F)F)cc1-c1cc(-c2ccnn2C)ncc1C(=O)Nc1nnc(C#CC2CC2)s1 [Compound 127],< 0.25
